The record followed here is patent publication US20140196172A1, “Organelle Targeting Nanocarriers” (Her Majesty the Queen in Right of Canada, as Repre sented …, priority 2011, published 2014).

Data set [1] concerns MDCK (Madin-Darby canine kidney) cells. The experiment in a line: Incubation of MDCK cells with fluorescently labeled peptides, confocal microscopy. It is filed as cell-based. Conditions: fluorescein-labelled peptide, 1 h, MitoTracker Orange. Here is the method: MDCK cells are cultured in Dulbecco's Modified Eagle Medium (DMEM) containing 5% (v/v) fetal bovine serum (FBS) and 1% (v/v) penicillin/streptomycin at 37° C. in a humidified atmosphere containing 5% CO2. The cells grown on 10-cm dishes are detached with trypsin and ethylenediaminetetraacetic acid (EDTA) and washed with DMEM/FBS. Cells used for microscopy are prepared by adding 100 000 cells to the apical chamber of 12-mm diameter Transwell™ permeable supports (Costar, Cambridge, Mass.). Cells are cultured in DMEM/FBS for 3-5 days.
MDCK cells cultured in apical chambers of 12-mm diameter Transwell™ permeable supports are incubated with 80 μl fluoresceinated mTPs or cTPs (100 μM) and 320 μl of Dulbecco's Modified Eagle Medium (DMEM) for 1 h in the dark at room temperature, followed by washing with 400 μl of DMEM.
Cells are observed using a confocal microscope (Nikon C1, Nikon Canada Inc. or Olympus FluoView™) to analyse the localization of the fluoresceinated mTPs or cTPs (excitation wavelength 490 nm/emission wavelength 520 nm). Chloroplasts are identified by autofluorescence. The fluorescent dye MitoTracker® Orange CM-H2TMRos (M7511, Invitrogen) is used to stain mitochondria (excitation wavelength 554 nm/emission wavelength 576 nm). Fluorescence emissions are collected in z-confocal planes of […] and analyzed using EZ-C1 Software Version 3.6 (Nikon) or Olympus FluoView™ software version 2.0b (Olympus).

In data set [2] the test system is Caco-2 (human colonic epithelial cell line). Kind of data set: Uptake of labeled peptides by Caco-2 cells, photometric cell imaging. The settings on record: for Average concentration of labeled peptide measured in cells, Caco-2: cells exposed to labeled peptide at 17 μM; for Photometric Cell Imaging (average counts/sec) Caco-2: 1 hr, background about 1×10^5 counts/sec. It is filed as cell-based. How it is done: (§1) Caco-2 and F1112 cells are cultured in Dulbecco's Modified Eagle Medium (DMEM) containing 10% (v/v) fetal bovine serum (FBS) and 50 μg/ml gentamycin at 37° C. in a 95% humidified atmosphere containing 5% CO2. The cells are grown in Falcon™ […] 75 cm^2 cell culture flasks until they reach confluency, then are detached with 0.25% trypsin and 0.02% EDTA and washed with DMEM.
(§2) Preparations used for photometric cell imaging are prepared by adding 1000 cells to a Nunc coverglass chamber (2.5 cm^2). Cells are cultured as described above for 3 to 7 days. The cell monolayers are rinsed three times with epithelial cell saline (pH 7.4).
(§3) Varying concentrations of fluoresceinated mTPs (100 μM) are added to epithelial cell saline to obtain a final working volume of 400 μl. Final concentrations added to the Caco-2, F1112 and MG cell monolayers as described above are 17 μM, 9 μM and 4 μM. Cells are incubated with the peptides for 1 hr in the dark at 37° C. in a 95% humidified atmosphere containing 5% CO2. At the end of the incubation period, the cell monolayer is rinsed three times with epithelial cell saline and 500 μl of epithelial cell saline is added.
(§4) Uptake of labeled peptides by cells is quantified using a photometric detector/cell-imaging system (PTI). An excitation scan is run to determine if uptake has occurred as indicated by peaks at the appropriate wavelengths and if the amount changes in a dose-dependent manner compared to unlabeled cells. A time-based scan is then performed at the optimal excitation and emission wavelength to quantify total uptake, using about 20 cells/view/replicate.

In data set [3] the test system is F1112 (bovine colonic cell line). The experiment in a line: Uptake of labeled peptides by F1112 cells, photometric cell imaging. Conditions: for Average concentration of labeled peptide measured in cells, F1112: cells exposed to labeled peptide at 17 μM; for Photometric Cell Imaging (average counts/sec) F1112: 1 hr, background about 1×10^5 counts/sec. It is filed as cell-based. How it is done:
as §1, §2, §3, §4

The subject of data set [4] is linearized plasmid DNA (linear double stranded DNA, 6.8 kb). The experiment in a line: Gel mobility shift assay. Format: binding. The settings on record: minimum peptide needed for complete shift of 100 ng plasmid DNA; — = no shift up to highest ratio tested. Here is the method:
The ten non-labelled oTP sequences identified as having both cell penetrating and organelle targeting properties (Tables 3 and 4) were tested, using a gel mobility shift assay and a nuclease protection assay, for their ability to bind non-covalently to nucleic acids.
The gel mobility shift assay is used to determine the minimum peptide concentration needed to bind to plasmid DNA and cause it to shift during electrophoresis. Purified linearized plasmid DNA (100 ng of linear double stranded DNA, 6.8 kb) is mixed with increasing concentrations of each of the ten oTPs listed in Tables 3 and 4, according to calculated increasing peptide:DNA charge ratios (1:1, 2:1, 3:1, 4:1, 5:1, etc.) until a complete shift is observed in the plasmid DNA during electrophoresis. The DNA is prepared to a final concentration of a 100 ng/μl in sterile water. Each reaction has a final volume of 25 μl and is incubated for 30 min for complex formation and subjected to electrophoresis on 1% agarose gel stained with ethidium bromide.

As for “MFSYLPRYPLRAASARALVRATRPSYRSALLRYQ (listed as Triticum aestivum) [mTP1]”, the Mitochondrial targeting result in data set [1] is “Specific mitochondrial targeting”. Moreover, in data set [2], the “Average concentration of labeled peptide measured in cells, Caco-2” value (“Average concentration … Caco-2” below) is reported as 70 nm. Further, the “Photometric Cell Imaging (average counts/sec) Caco-2” value in data set [2] (labeled peptide 4 μM) came to 200000 counts/sec; in data set [2] (labeled peptide 9 μM), 1200000 counts/sec; in data set [2] (labeled peptide 17 μM), 1600000 counts/sec. Besides, the “Average concentration of labeled peptide measured in cells, F1112” value (“Average concentration … F1112” below) in data set [3] came to 49 nm. The “Photometric Cell Imaging (average counts/sec) F1112” value in data set [3] (labeled peptide 4 μM) is recorded as 330000 counts/sec; in data set [3] (labeled peptide 9 μM) it was 560000 counts/sec; in data set [3] (labeled peptide 17 μM), 1200000 counts/sec. Further, the “Peptide:DNA Ratio, Molar Binding Ratio” value in data set [4] worked out at 264.14.
Turning to MAAWMRSLFSPLKKLWIRMH (Zea mays) [mTP2], the Mitochondrial targeting entry in data set [1] is given as “non-specific mitochondrial localization”. Moreover, the “Average concentration … Caco-2” value in data set [2] is 20 nm. The “Photometric Cell Imaging (average counts/sec) Caco-2” value in data set [2] (labeled peptide 4 μM) stood at 340000 counts/sec; in data set [2] (labeled peptide 9 μM) it was 420000 counts/sec; in data set [2] (labeled peptide 17 μM), 490000 counts/sec. The “Average concentration … F1112” value in data set [3] was 70 nm. Moreover, the entries for the “Photometric Cell Imaging (average counts/sec) F1112” value in data set [3] (labeled peptide 4 μM), in data set [3] (labeled peptide 9 μM) and in data set [3] (labeled peptide 17 μM) were 450000 counts/sec, 1800000 counts/sec and 1700000 counts/sec, respectively. For the same sequence, the “Peptide:DNA Ratio, Molar Binding Ratio” value in data set [4] is on record as 167.39.
Consider “MKLLWRLILSRKW (listed as Arabidopsis thaliana) [mTP3]”, for which the Mitochondrial targeting result in data set [1] is “Specific mitochondrial targeting”. In data set [2], the “Average concentration … Caco-2” value was found to be 60 nm. The entries for the “Photometric Cell Imaging (average counts/sec) Caco-2” value in data set [2] (labeled peptide 4 μM), in data set [2] (labeled peptide 9 μM) and in data set [2] (labeled peptide 17 μM) were 460000 counts/sec, 1200000 counts/sec and 1600000 counts/sec, respectively. Moreover, in data set [3], the “Average concentration … F1112” value came to 53 nm. Further, the “Photometric Cell Imaging (average counts/sec) F1112” value in data set [3] (labeled peptide 4 μM) turned out to be 350000 counts/sec; in data set [3] (labeled peptide 9 μM), 1100000 counts/sec; in data set [3] (labeled peptide 17 μM), 1300000 counts/sec. Besides, the “Peptide:DNA Ratio, Molar Binding Ratio” value in data set [4] is reported as 71.39.
With “MWWRRSRTNSLRYT (listed as Arabidopsis thaliana) [mTP4]”, the Mitochondrial targeting result in data set [1] is on record as “non-specific mitochondrial localization”. In data set [2], the “Average concentration … Caco-2” value is 60 nm. Besides, the “Photometric Cell Imaging (average counts/sec) Caco-2” value in data set [2] (labeled peptide 4 μM) is recorded as 300000 counts/sec; in data set [2] (labeled peptide 9 μM), 1200000 counts/sec; in data set [2] (labeled peptide 17 μM) it was 1600000 counts/sec. In data set [3], the “Average concentration … F1112” value was 144 nm. The results for the “Photometric Cell Imaging (average counts/sec) F1112” value in data set [3] (labeled peptide 4 μM), in data set [3] (labeled peptide 9 μM) and in data set [3] (labeled peptide 17 μM) were 250000 counts/sec, 300000 counts/sec and 3500000 counts/sec, respectively.
In the case of “MLFRLRRSVRLRGLLA (listed as Arabidopsis thaliana) [mTP5]”, the Mitochondrial targeting entry in data set [1] is “Specific mitochondrial targeting”. Besides, the “Average concentration … Caco-2” value in data set [2] was 60 nm. For the same sequence, the “Photometric Cell Imaging (average counts/sec) Caco-2” value in data set [2] (labeled peptide 4 μM) was determined as 280000 counts/sec; in data set [2] (labeled peptide 9 μM), 650000 counts/sec; in data set [2] (labeled peptide 17 μM) it was 1600000 counts/sec. The “Average concentration … F1112” value in data set [3] is listed as 60 nm. Further, the “Photometric Cell Imaging (average counts/sec) F1112” value is 440000 counts/sec in data set [3] (labeled peptide 4 μM), 2000000 counts/sec in data set [3] (labeled peptide 9 μM) and 1600000 counts/sec in data set [3] (labeled peptide 17 μM). Further, the “Peptide:DNA Ratio, Molar Binding Ratio” value in data set [4] worked out at 114.29.
